Entries after “also recorded” stand apart in the source; their conditions may differ. Like-named read-outs stand apart in the source and are kept apart here.
Experiments:
human liver microsomes [1] = assay: Metabolism of pemigatinib in human liver microsomes with selective chemical CYP inhibitors; settings: pemigatinib 1 μM, human liver microsomes 1 mg/mL, NADPH; no inhibitor or furafylline 10, ticlopidine 2, quercetin 10, sulfaphenazole 10, tranylcypromine 20, quinidine 1, ketoconazole 2 μM
Method: (§3) Aliquots were taken at 0, 10, 20, and 30 minutes and denatured with methanol. After centrifugation to remove the denatured proteins, the resulting supernatants were analyzed by LC/MS.

CYP1A2 = target: T1, CYP1A2 (Homo sapiens, UniProt P05177); assay: In vitro metabolism of pemigatinib by recombinant human CYP1A2; format: in vitro ADME
T1 sequence (P05177 1-516): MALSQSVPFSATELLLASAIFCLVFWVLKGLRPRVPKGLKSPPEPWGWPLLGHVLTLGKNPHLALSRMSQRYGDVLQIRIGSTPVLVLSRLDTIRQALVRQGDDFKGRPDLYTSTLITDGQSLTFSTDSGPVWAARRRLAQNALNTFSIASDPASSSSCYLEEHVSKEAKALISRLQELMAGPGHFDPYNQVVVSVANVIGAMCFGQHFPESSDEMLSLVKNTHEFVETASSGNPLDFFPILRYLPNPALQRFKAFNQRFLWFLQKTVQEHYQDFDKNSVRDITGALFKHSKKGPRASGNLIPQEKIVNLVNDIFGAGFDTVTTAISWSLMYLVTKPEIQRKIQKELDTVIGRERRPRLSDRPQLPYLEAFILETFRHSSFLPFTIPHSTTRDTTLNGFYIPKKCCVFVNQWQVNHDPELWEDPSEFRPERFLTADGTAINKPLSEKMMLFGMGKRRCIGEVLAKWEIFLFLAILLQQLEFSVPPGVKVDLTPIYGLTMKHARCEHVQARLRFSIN
Method: (§1) In vitro metabolism studies were conducted to determine the human cytochrome P450 (CYP) isozyme(s) capable of metabolizing pemigatinib.
(§2) In vitro metabolism studies were conducted to determine the individual human recombinant CYP isozymes capable of metabolizing pemigatinib (1 μM) and included CYP1A2, CYP2B6, CYP2C8, CYP2C9, CYP2C19, CYP2D6, or CYP3A4.

CYP2B6 = target: T2, CYP2B6 (Homo sapiens, UniProt P20813); assay: In vitro metabolism of pemigatinib by recombinant human CYP2B6; format: in vitro ADME
T2 sequence (P20813 1-491): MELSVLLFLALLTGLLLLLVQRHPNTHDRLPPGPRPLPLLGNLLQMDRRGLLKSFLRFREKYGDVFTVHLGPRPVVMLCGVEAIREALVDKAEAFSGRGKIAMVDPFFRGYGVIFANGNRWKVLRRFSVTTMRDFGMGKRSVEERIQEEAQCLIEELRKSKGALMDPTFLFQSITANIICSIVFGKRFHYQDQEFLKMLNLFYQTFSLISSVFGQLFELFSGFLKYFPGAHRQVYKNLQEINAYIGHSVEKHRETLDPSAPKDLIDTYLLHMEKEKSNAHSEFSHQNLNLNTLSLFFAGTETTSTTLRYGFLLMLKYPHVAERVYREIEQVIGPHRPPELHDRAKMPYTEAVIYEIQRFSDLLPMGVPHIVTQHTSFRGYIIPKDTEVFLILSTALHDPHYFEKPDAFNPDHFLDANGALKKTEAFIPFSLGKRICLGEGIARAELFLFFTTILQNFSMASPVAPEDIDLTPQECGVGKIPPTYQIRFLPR
Method: as §1, §2

CYP2C8 = target: T3, CYP2C8 (Homo sapiens, UniProt P10632); assay: In vitro metabolism of pemigatinib by recombinant human CYP2C8; format: in vitro ADME
T3 sequence (P10632 1-490): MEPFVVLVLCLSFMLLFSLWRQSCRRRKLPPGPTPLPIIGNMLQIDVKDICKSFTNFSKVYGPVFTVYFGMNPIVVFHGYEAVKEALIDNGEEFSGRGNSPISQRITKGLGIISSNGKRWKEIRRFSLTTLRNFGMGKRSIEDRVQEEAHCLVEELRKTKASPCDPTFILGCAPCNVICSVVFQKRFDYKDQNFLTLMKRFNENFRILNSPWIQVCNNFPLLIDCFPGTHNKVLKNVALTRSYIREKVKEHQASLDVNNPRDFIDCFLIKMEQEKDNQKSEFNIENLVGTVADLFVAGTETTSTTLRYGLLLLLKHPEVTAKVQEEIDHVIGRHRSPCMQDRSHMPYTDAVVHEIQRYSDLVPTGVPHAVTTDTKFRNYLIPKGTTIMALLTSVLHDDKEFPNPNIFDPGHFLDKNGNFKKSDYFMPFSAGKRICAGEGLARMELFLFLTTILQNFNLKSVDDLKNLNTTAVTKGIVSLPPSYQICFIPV
Method: as §1, §2

CYP2C9 = CYP2C9 (Homo sapiens, UniProt P11712); assay: In vitro metabolism of pemigatinib by recombinant human CYP2C9; format: in vitro ADME
Chain of CYP2C9 (P11712 whole entry): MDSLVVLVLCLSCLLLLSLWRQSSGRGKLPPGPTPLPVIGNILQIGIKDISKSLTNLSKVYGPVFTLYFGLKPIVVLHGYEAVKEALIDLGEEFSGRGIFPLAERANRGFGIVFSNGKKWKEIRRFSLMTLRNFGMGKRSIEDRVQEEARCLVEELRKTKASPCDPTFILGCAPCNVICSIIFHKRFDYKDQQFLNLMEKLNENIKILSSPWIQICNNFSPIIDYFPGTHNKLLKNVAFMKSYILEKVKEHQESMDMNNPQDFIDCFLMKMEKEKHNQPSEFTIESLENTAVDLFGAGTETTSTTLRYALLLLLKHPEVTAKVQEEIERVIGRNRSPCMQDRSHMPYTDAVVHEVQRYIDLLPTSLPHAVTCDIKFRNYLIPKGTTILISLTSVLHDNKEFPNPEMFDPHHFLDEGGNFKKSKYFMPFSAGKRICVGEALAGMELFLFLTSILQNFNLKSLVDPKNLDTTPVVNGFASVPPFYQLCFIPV
Method: as §1, §2

CYP2C19 = CYP2C19 (Homo sapiens, UniProt P33261); assay: In vitro metabolism of pemigatinib by recombinant human CYP2C19; format: in vitro ADME
Chain of CYP2C19 (P33261 whole entry): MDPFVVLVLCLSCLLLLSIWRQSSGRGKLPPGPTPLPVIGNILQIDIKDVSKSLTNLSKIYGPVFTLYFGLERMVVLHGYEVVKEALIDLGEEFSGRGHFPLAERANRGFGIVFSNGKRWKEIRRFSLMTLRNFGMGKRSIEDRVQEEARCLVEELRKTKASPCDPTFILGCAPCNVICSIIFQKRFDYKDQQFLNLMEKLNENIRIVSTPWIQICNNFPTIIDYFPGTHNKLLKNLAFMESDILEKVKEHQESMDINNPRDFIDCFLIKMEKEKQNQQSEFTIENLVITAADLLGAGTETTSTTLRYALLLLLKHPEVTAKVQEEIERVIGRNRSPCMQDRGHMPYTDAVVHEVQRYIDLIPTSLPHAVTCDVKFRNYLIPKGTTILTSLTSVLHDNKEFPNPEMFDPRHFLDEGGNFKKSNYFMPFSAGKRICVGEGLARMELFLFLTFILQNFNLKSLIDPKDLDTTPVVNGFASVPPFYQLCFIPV
Method: as §1, §2

CYP2D6 = CYP2D6 (Homo sapiens, UniProt P10635); assay: In vitro metabolism of pemigatinib by recombinant human CYP2D6; format: in vitro ADME
Chain of CYP2D6 (P10635 whole entry): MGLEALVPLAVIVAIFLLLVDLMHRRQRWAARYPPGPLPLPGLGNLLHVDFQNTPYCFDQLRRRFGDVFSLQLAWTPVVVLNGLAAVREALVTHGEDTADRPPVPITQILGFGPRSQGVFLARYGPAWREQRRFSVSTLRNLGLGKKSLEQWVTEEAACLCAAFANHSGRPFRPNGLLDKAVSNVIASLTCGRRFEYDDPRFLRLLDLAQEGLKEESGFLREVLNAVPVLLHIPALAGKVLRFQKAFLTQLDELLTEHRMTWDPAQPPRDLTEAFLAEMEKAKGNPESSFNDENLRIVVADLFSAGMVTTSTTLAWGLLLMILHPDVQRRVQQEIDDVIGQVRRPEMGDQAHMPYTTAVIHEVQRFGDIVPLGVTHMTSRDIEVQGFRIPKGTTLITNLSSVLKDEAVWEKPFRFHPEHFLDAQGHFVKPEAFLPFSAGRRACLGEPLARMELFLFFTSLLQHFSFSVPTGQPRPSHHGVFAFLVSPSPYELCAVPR
Method: as §1, §2

CYP3A4 = target: T4, CYP3A4 (Homo sapiens, UniProt P08684); assay: In vitro metabolism of pemigatinib by recombinant human CYP3A4; format: in vitro ADME
T4 construct: host or cells: in silico (Simcyp virtual population); observed values come from healthy volunteers
T4 sequence (P08684 whole entry): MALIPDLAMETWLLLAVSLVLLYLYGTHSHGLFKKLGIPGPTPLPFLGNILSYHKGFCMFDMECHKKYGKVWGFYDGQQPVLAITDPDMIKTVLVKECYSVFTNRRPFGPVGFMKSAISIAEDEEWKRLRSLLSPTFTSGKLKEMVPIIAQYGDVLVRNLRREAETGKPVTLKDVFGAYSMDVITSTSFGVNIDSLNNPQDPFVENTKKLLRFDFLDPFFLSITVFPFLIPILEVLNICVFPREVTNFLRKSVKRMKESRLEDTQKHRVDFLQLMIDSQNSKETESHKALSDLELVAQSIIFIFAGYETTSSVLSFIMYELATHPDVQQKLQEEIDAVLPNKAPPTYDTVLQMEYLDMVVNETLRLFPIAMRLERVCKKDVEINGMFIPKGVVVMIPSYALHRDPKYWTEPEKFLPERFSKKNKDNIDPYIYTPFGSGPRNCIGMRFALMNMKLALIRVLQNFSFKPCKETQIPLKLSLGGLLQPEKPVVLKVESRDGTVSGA
Method: as §1, §2

[2] = Mass balance and metabolite identification (human ADME) data; format: in vivo
[3] = Phase I dose escalation and dose expansion study, observed PK in cancer patients; format: in vivo; settings: human, plasma, geometric mean; for AUC: read-out: Observed AUCss; for Cmax: read-out: Observed Cmax, ss
Method: The pemigatinib PBPK model was developed from healthy volunteer was used to describe cancer patients PK data from phase I dose escalation and dose expansion study (6-20 mg). The model was used to predict pemigatinib plasma concentration-time curves in cancer patients after multiple oral dose of 6, 9, 13.5 and 20 mg pemigatinib because only one patient was dosed for 1, 2 and 4 mg, respectively.

[4] = Permeability of pemigatinib (statement, no method given); format: in vitro ADME
clinical = settings: human, plasma
[5] = Phase 1 drug-drug interaction study: safety and tolerability (TEAEs)
Method: In addition, this study also evaluates the safety and tolerability of pemigatinib when administered alone or in combination with itraconazole or rifampin. Safety and tolerability is assessed by monitoring adverse events, vital signs, physical examinations, 12-lead ECGs, and clinical laboratory blood and urine sample assessments. Pharmacokinetic endpoints include tmax, AUC0-t, AUC0-∞, t1/2, CL/F, and Vz/F.
Vital signs (oral temperature; respiratory rate; automated, seated blood pressure; and pulse) are obtained at screening, check-in, and follow-up; at 0 hour (predose) on Days 1 and 8; and at approximately 1, 2, 3, 6, and 24 hours after the morning dose on Day 4 and Day 9. Clinical safety laboratory assessments are performed at screening; on Days −1, 2, 5, 9, 10, and 11; and at follow-up. A serum pregnancy is obtained at screening and follow-up. A urine pregnancy test is obtained at check-in for each visit for all women. On Day 8, a 12-lead ECG is performed predose, 2 hours postdose, and approximately 24 hours postdose. On other days, 12-lead ECGs are performed only at predose.
Vital signs (oral temperature; respiratory rate; automated, seated blood pressure; and pulse) are obtained at screening, check-in and follow-up; at 0 hour (predose) on Days 1 and 11; and at approximately 1, 2, 3, 6, and 24 hours after the morning dose on Days 4, 10, and 12. Clinical safety laboratory assessments are performed at screening; on Days −1, 2, 8, and 13; and at follow-up. A serum pregnancy test is obtained at screening and follow-up. A urine pregnancy test is obtained at check-in for each visit for all women. On Day 11, a 12-lead ECG is performed predose, 2 hours postdose, and approximately 24 hours postdose. On other days, 12-lead ECGs is performed only at predose.

[6] = Phase 1 drug-drug interaction study: single-dose pemigatinib PK alone or with itraconazole or rifampin
[7] = human, in vivo, po
human liver microsomes [8] = settings: 0.5 h, 1 μM, pH 7.4
Method: as §3

[9] = Cohort 1 (n=18): pemigatinib 4.5 mg alone and with itraconazole
[10] = Cohort 1: 4.5 mg pemigatinib alone or with itraconazole 200 mg QD, geometric mean
[11] = Cohort 1: 4.5 mg pemigatinib alone or with itraconazole 200 mg QD, mean ± SD
[12] = Cohort 2: 13.5 mg pemigatinib alone or with rifampin 600 mg QD, geometric mean
[13] = Cohort 2: 13.5 mg pemigatinib alone or with rifampin 600 mg QD, mean ± SD
[14] = pemigatinib with/without itraconazole, geometric mean

N[C@@H]1C[C@H]1c1ccccc1 (racemic) [Tranylcypromine]
Mean Percent of Pemigatinib Remaining After 30-Minute Incubation (N = 3) (human liver microsomes [1]): 73 ± 2%

CCN1C(=O)N(c2c(F)c(OC)cc(OC)c2F)Cc2cnc3[nH]c(CN4CCOCC4)cc3c21 [Pemigatinib, 3-(2,6-difluoro-3,5-dimethoxyphenyl)-1-ethyl-8-(morpholin-4-ylmethyl)-1,3,4,7-tetrahydro-2H-pyrrolo[3′,2′: 5,6]pyrido[4,3-d]pyrimidin-2-one]
Extent of in vitro metabolism by CYP1A2 (in words) (CYP1A2): negligible
Average Percent (N = 2) of Pemigatinib Remaining vs Control (30 mins) (CYP1A2; recombinant CYP1A2, pemigatinib 1 μM, 30 min): 92%
Extent of in vitro metabolism by CYP2B6 (in words) (CYP2B6): negligible
Average Percent (N = 2) of Pemigatinib Remaining vs Control (30 mins) (CYP2B6; recombinant CYP2B6, pemigatinib 1 μM, 30 min): 96%
Extent of in vitro metabolism by CYP2C8 (in words) (CYP2C8): negligible
Average Percent (N = 2) of Pemigatinib Remaining vs Control (30 mins) (CYP2C8; recombinant CYP2C8, pemigatinib 1 μM, 30 min): 94%
Extent of in vitro metabolism by CYP2C9 (in words) (CYP2C9): negligible
Average Percent (N = 2) of Pemigatinib Remaining vs Control (30 mins) (CYP2C9; recombinant CYP2C9, pemigatinib 1 μM, 30 min): 88%
Extent of in vitro metabolism by CYP2C19 (in words) (CYP2C19): negligible
Average Percent (N = 2) of Pemigatinib Remaining vs Control (30 mins) (CYP2C19; recombinant CYP2C19, pemigatinib 1 μM, 30 min): 95%
Extent of in vitro metabolism by CYP2D6 (in words) (CYP2D6): negligible
Average Percent (N = 2) of Pemigatinib Remaining vs Control (30 mins) (CYP2D6; recombinant CYP2D6, pemigatinib 1 μM, 30 min): 94%
Extent of in vitro metabolism by CYP3A4 (in words) (CYP3A4): predominantly metabolized; also recorded: metabolized to the greatest extent
Average Percent (N = 2) of Pemigatinib Remaining vs Control (30 mins) (CYP3A4; recombinant CYP3A4, pemigatinib 1 μM, 30 min): 14%
Oral absorption of pemigatinib (in words) ([2]; mass balance and metabolite identification data): nearly complete
Renal excretion (unchanged pemigatinib excreted in urine) ([2]; mass balance data): ~1.0 % of the dose
Unchanged pemigatinib recovered in feces ([2]; mass balance data): 1.3 % of the administered radioactive dose
AUC ([3]; multiple oral dose 6 mg): 1.11 µM·h
Cmax ([3]; multiple oral dose 6 mg): 101 nM
AUC ([3]; multiple oral dose 9 mg): 1.51 µM·h
Cmax ([3]; multiple oral dose 9 mg): 161 nM
AUC ([3]; multiple oral dose 13.5 mg): 2.6 µM·h
Cmax ([3]; multiple oral dose 13.5 mg): 175 nM
AUC ([3]; multiple oral dose 20 mg): 4.18 µM·h
Cmax ([3]; multiple oral dose 20 mg): 380 nM
Permeability of pemigatinib (in words) [4]: high permeability
AUC0-t (clinical; oral, 4.5 mg): 0.674 ± 0.246 µM·h
AUC(0-inf) (clinical; oral, 4.5 mg): 0.712 ± 0.252 µM·h
Cmax (clinical; oral, 4.5 mg): 55.2 nM
Tmax (clinical; oral, 4.5 mg): 2 h
Vd/F (clinical; oral, 4.5 mg): 244 ± 75.8 L
half-life (clinical; oral, 4.5 mg): 708 min
AUC(0-inf) (clinical; oral, 13.5 mg): 2.04 ± 0.556 µM·h
Cmax (clinical; oral, 13.5 mg): 176 nM
Tmax (clinical; oral, 13.5 mg): 1.5 h
Vd/F (clinical; oral, 13.5 mg): 267 ± 73.1 L
half-life (clinical; oral, 13.5 mg): 762 min
AUC (clinical; po, 4.5 mg): 0.672 µM·h
Cmax (clinical; po, 4.5 mg): 60.1 ± 25.3 nM
Cmax (clinical; po, 13.5 mg): 187 ± 63.3 nM
Dry mouth TEAE, % [5, 9]: (11.1) %
Dry skin TEAE, % [5, 9]: (11.1) %
Headache TEAE, % [5, 9]: (16.7) %
Nausea TEAE, % [5, 9]: (5.6) %
Paraesthesia TEAE, % [5, 9]: (0) %
Rash papular TEAE, % [5, 9]: (11.1) %
Somnolence TEAE, % [5, 9]: (11.1) %
Vision blurred TEAE, % [5, 9]: (11.1) %
Most common TEAE ([5]; both cohorts): headache
Serious TEAEs or deaths ([5]; both cohorts): no serious TEAEs or deaths
TEAEs of grade 3 or higher ([5]; both cohorts): no TEAEs of grade 3 or high
Treatment discontinuations or dose interruptions due to TEAEs ([5]; both cohorts): no treatment discontinuations or dose interruptions due to TEAEs
Safety and tolerability (overall conclusion) ([5]; healthy male and female volunteers): safe and generally well tolerated
AUC0-t [6, 10]: 634 nM·h
AUC0-∞ [6, 10]: 672 nM·h
CL/F [6, 10]: 13.7 L/h
CL/F [6, 11]: 14.5 ± 4.55 L/h
t1/2 [6, 11]: 12.1 ± 2.74 h
AUC0-t [6, 12]: 1900 nM·h
AUC0-∞ [6, 12]: 1960 nM·h
CL/F [6, 12]: 14.1 L/h
AUC0-t [6, 13]: 1980 ± 526 nM·h
CL/F [6, 13]: 14.8 ± 4.86 L/h
t1/2 [6, 13]: 12.9 ± 2.90 h
Tmax ([6]; Cohort 2: 13.5 mg pemigatinib alone or with rifampin 600 mg QD, median): 1.0 h
Oral clearance of pemigatinib (in words) ([6]; in vivo, po): low oral clearance
AUC Ratio, Observed [6, 14]: 1.88
Cmax Ratio, Observed [6, 14]: 1.17
Cmax ([6]; read-out: Observed Cmax, single oral 13.5 mg, geometric mean): 158 nM

CCC(C)n1ncn(-c2ccc(N3CCN(c4ccc(OCC5COC(Cn6cncn6)(c6ccc(Cl)cc6Cl)O5)cc4)CC3)cc2)c1=O (stereo not shown) [Itraconazole, reference compound]
Pemigatinib AUC Ratio, Observed [7]: 1.88
Pemigatinib Cmax Ratio, Observed [7]: 1.17

Cc1nc2c([nH]1)c(=O)n(C)c(=O)n2Cc1ccco1 [Furafylline]
Mean Percent of Pemigatinib Remaining After 30-Minute Incubation (N = 3) (human liver microsomes [8]): 67 ± 1%

Reference: patent US11628162B2, “Methods of treating cancer with an FGFR inhibitor” (Incyte Corporation, priority 2019, dated 2023)
